From patent US4861798A, “Lipoxygenase inhibitory compounds” (Bristol-Myers Company, priority 1987, dated 1989)

Tests used:
[1] = molecular target: T1, 5-lipoxygenase (Human Leukocyte/PMNL 5-LPO) (Homo sapiens, UniProt P09917); assay: Inhibition of 5-lipoxygenase (5-HETE formation) in human neutrophil/platelet system; format: cell-based
T1 construct: Human neutrophils and platelets were obtained from the blood of normal volunteers; endogenous in cells; host or cells: human blood leukocytes (neutrophils) of normal volunteers, with 0.1 to 0.5 platelets per leukocyte
T1 sequence (P09917 1-674): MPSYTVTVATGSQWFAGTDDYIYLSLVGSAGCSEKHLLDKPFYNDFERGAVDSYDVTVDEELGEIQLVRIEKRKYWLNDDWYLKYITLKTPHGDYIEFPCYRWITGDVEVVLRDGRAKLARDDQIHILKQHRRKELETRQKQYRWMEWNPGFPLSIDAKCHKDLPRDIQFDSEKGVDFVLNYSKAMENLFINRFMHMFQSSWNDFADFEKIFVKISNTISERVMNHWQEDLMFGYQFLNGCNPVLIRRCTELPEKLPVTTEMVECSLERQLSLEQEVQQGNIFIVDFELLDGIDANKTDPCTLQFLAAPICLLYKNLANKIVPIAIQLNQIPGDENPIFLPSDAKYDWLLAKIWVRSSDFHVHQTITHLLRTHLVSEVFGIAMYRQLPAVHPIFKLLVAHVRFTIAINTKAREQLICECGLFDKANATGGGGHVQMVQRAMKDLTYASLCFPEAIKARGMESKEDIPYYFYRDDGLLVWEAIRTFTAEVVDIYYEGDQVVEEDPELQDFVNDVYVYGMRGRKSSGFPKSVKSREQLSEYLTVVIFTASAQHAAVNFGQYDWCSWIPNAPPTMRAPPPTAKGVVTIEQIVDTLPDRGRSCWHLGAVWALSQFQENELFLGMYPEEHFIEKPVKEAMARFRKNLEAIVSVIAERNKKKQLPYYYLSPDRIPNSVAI
Text: This test is a measure of the inhibition of the synthesis of lipoxygenase products generated by human neutrophils and platelets. The protocol is similar to that described in the article "Comparative Effects of Indomethacin, Acetylenic Acids, 15-HETE, NDGA and BW755C on the Metabolism of Arachidonic Acid in Human Leukocytes and Platelets", H. Solari, P. Braquet and P. Borgeat, Prost. Leuk. Med. 13, pp. 53-60, 1984.
Human neutrophils and platelets were obtained from the blood of normal volunteers. The blood was collected into tubes containing EDTA as an anticoagulant. The blood was centrifuged at 250×g for 15 minutes and the platelet rich plasma was removed. The cell fraction was mixed with an equal volume of 0.9% saline containing 10 mM dextrose and resuspended in Dulbecco's phosphate buffered saline (PBS) without Mg^++ and Ca^++ and was counted. The cell suspension was adjusted to give a leukocyte count of 2-3×10^7 cells/ml.
Test compounds were dissolved in ethanol and added to polypropylene tubes. To control tubes (drug-free) only ethanol was added. The ethanol was evaporated to dryness under a stream of argon and then 0.1 ml of the cell suspension (2-3×10^6 cells) was added. This mixture was pre-incubated for 5 minutes at 37° and then the reaction was initiated by addition of ^3 H-arachidonic acid, calcium ionophore (A23187), and calcium ion. The final concentration of each component was: arachidonic acid, 10 uM; A23187, […]; calcium ion, […]. After 5 minutes the incubations were stopped by addition of an equal volume of methanol. The tubes were spun at 11,000 g for 2 minutes to pellet the precipitated protein. The supernatant was analyzed by HPLC for 5-HETE. The formation of this product is indicative of 5-lipoxygenase activity. Test drugs were evaluated for their ability to inhibit 5-HETE formation. Percent inhibition of varying concentrations of test drugs was determined in duplicate by comparing the peak quantitation in the presence and absence (control) of drug. […] The IC50 values were calculated from log-dose response curves of pooled data from at least two experiments by linear regression analysis.
The activity was tested by the same method as in the previous example.
The enzyme inhibitory activity of these compounds was tested by the same method.

Human Platelet 12-LPO = molecular target: T2, Human Platelet 12-LPO (Homo sapiens, UniProt P18054); assay: Inhibition of 12-LPO, human platelet; format: cell-based; details: @ 100 μM; read-out: % I Human Platelet 12-LPO
T2 construct: Human neutrophils and platelets were obtained from the blood of normal volunteers; endogenous in cells; host or cells: human platelets from blood of normal volunteers
T2 sequence (P18054 1-663): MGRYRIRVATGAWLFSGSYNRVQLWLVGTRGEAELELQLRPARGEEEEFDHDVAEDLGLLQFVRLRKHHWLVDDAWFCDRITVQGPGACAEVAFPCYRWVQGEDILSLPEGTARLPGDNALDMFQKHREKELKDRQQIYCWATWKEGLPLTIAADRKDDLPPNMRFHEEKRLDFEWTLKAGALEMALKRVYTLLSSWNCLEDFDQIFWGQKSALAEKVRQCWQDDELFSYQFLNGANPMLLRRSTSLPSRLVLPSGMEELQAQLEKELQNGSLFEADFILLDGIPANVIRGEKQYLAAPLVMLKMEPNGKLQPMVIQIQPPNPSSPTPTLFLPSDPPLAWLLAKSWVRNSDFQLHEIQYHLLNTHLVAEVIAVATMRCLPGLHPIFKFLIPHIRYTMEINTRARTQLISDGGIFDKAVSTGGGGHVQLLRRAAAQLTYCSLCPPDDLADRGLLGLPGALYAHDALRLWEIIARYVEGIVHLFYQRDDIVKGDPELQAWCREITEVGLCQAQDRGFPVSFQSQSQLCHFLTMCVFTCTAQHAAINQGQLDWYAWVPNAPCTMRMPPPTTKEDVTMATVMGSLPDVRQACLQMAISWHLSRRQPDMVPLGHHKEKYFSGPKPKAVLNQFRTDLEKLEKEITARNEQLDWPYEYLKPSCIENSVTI

Human Platelet CO = molecular target: T3, Human Platelet CO (Homo sapiens, UniProt P23219); assay: Inhibition of CO, human platelet; format: cell-based; details: 95% confidence interval given for some
T3 construct: Human neutrophils and platelets were obtained from the blood of normal volunteers; endogenous in cells; host or cells: human platelets from blood of normal volunteers
T3 sequence (P23219 24-599): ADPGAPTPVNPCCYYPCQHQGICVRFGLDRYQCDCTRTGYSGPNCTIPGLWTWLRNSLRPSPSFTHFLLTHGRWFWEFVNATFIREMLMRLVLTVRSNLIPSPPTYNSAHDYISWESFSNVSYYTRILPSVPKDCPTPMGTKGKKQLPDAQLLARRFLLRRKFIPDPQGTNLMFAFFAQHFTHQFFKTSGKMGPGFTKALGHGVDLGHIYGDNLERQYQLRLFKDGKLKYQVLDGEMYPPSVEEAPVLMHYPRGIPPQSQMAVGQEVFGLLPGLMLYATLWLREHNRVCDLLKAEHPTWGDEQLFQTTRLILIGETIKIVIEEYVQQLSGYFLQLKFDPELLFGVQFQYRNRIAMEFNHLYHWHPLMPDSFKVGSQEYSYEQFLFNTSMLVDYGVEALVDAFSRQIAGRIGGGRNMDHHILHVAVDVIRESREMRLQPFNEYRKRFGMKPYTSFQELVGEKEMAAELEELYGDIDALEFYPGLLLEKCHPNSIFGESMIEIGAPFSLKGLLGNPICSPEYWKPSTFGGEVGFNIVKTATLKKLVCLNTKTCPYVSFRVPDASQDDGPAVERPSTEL

[2] = system: cell infiltration (leukocytes); assay: Carrageenan sponge implantation model, cell infiltration; format: in vivo, rat; details: for Leukocyte No.: 6 h
Text: (§1) The carrageenan sponge implantation model is primarily used to measure the effect of antiinflammatory agents on cell infiltration. An acute inflammatory response is stimulated by the implantation of a small sponge beneath the skin of rats. The sponge normally contains an inflammatory stimulus such as carrageenan and produces a response which is characterized by infiltration of cells and accumulation of fluid. The number of cells in the exudate can be conveniently measured in the exudate fluid.
(§2) The compound of Example I was evaluated for its local effect on cell migration and mediator production in this model. For comparison, indomethacin and BW755C were also evaluated after local application. Polyester sponges were soaked in solutions of 0.5% carrageenan (in normal saline) which also contained 1% or 5% wt/vol of the test compound. The impregnated sponge was inserted through a small incision on the dorsal surface of a lightly anesthetized rat into a subcutaneous pocket formed by blunt dissection. The incision was then closed. The control treatment consisted of a sponge soaked in 0.5% carrageenan in normal saline. Animals were sacrificed 6 hours after sponge implantation. Sponges are dissected out an placed in heparinized saline. The number of infiltrating cells were determined using a coulter counter. The inflammatory mediators prostaglandin E2, LTB4 and TxB2 in the exudate were determined by radioimmunoassay.

[3] = system: inflammatory mediators prostaglandin E2, LTB4 and TxB2; assay: Carrageenan sponge implantation model, mediator production in exudate; format: in vivo, rat
Text: as §1, §2

[4] = Experiment 1, 1% compound, control 3.6 ± 1.3
[5] = Experiment 1, 1% compound, control 10.8 ± 3.7
[6] = Experiment 1, 1% compound, control 11.8 ± 4.1

| % Inhibition at 100 μm ([1]; 4-alkoxyphenyl compounds) [%] | IC50 ([1]; FIG. 1 table, 95% confidence interval, read-out: IC50 Human PMNL 5-LPO) [µM] | inhibition at 100 µM (Human Platelet 12-LPO) [%] | IC50 (Human Platelet CO) [µM] | Structure (SMILES) | Leukocyte No. ([2]; Experiment 1, 0.5% carrageenan plus 1% compound in sponge, control 10.8 ± 1.5) | Leukocyte No. ([2]; Experiment 2, 0.5% carrageenan plus 5% compound in sponge, control 33.0 ± 3.8) | reduction of cell infiltration ([2]; dosed at 1%) | reduction of cell infiltration ([2]; dosed at 5%) [%] | activity in carrageenan sponge implantation model ([2]; in words) | TXB2 [3, 4] [ng/ml Exudate] | PGE2 [3, 5] [ng/ml Exudate] | LTB4 [3, 6] [ng/ml Exudate] | LTB4 ([3]; Experiment 2, 5% compound, control 5.5 ± 0.9) [ng/ml Exudate] | TXB2 ([3]; Experiment 2, 5% compound, control 19.2 ± 1.9) [ng/ml Exudate] | PGE2 ([3]; Experiment 2, 5% compound, control 137.6 ± 13.1) [ng/ml Exudate] |
| --- | --- | --- | --- | --- | --- | --- | --- | --- | --- | --- | --- | --- | --- | --- | --- |
| 98.3 | 5.7 | 33 | 15 | O=C(CCCCCCCCc1ccccc1)NO [Compound 1, 9-Phenylnonanohydroxamic Acid] | 6.9 ± .7 cells/ml (× 10^-6) | < 1 cells/ml (× 10^-6) | 36.1% | 96.1 | found to have activity in this in vivo animal system | 0.3 ± 0.1 | 5.7 ± 0.9 | 2.1 ± 1.0 | 2.4 ± 0.9 | 4.1 ± 0.9 | 21.3 ± 4.1 |
|  |  |  |  | COc1ccc2c(c1)c(CC(=O)O)c(C)n2C(=O)c1ccc(Cl)cc1 [Indomethacin, reference compound] |  |  | did not significantly reduce cell infiltration |  |  | < 0.5 | 1.9 ± 0.3 | 1.6 ± 0.5 |  |  |  |
